This is an account of results in a melting point compilation (Tetko et al.; mined from patent text by program, amines drawn as free bases though some values may be those of a salt).

In the case of `O=C1CC(COC(c2ccccc2)(c2ccccc2)c2ccccc2)=NC=C1OCc1ccccc1`, the melting point (usually the temperature, or range, at which the solid turns liquid) was in the range of 233 to 235 °C.
To `CC(=O)N(C)c1ccc(OCc2nc3ccccc3s2)cc1` belongs 119 to 120 °C.
For `Cc1nc(-c2cccc(F)c2)n(-c2ccc(S(N)(=O)=O)cn2)n1`, the melting point was 195 to 196 °C.
For `CCOC(=O)C1Oc2cc(C(=O)c3ccnn3C)c(Cl)c(Cl)c2O1` (configuration not stated), the melting point was 124 to 126 °C.
As for `CC1=NC(c2ccc(F)cc2F)c2ccccc2CN1C` (single isomer, unassigned; (+)), the melting point lay within 137 to 138 °C.
`CCOC(=O)c1cc(C#N)c(N)cc1OC`: the melting point is 164 °C.
As for `CCOC(=O)/C=C/c1cn(CC)nc1OCc1ccc(OCc2nc(-c3ccco3)oc2C)c(OC)c1`, the figure is 149 to 150 °C.
As for `COc1cc(C=O)ccc1OCc1nc(N2CCCCC2)sc1C`, the figure is 80 to 81 °C; as for `CCOC(=O)NS(=O)(=O)c1ccc2c(c1)CCN(C(=O)N(C)C)CC2`, 140 to 141 °C.
To `O=C(Nc1cccnc1)N1CCN(c2nccc(-c3ccc(F)cc3)n2)CC1` belongs 233 to 234 °C; to `COc1ccc(-c2c(O)c3ccc(Cl)cc3[nH]c2=O)cc1OC`, 312 to 314 °C.
With `CCCCc1cc(Br)c(N=Nc2ccc(N(CCO)CCO)cc2NC(C)=O)c(Br)c1`, the melting point was in the range of 157 to 159 °C.
To `CCCNC(=S)NC1=Nc2ccc(OC(F)(F)F)cc2SC1` belongs 180 to 182 °C; to `Cc1ccc(CO)cc1NC(=O)CC12CC3CC(CC(C3)C1)C2`, 190 °C.
To `CCOCc1nc2c(c(C)c(C)n3nnnc23)n1CCNC(=O)N1CCOCC1` belongs 205 to 207 °C; to `CC(C)Oc1c(C(=O)Nc2nnn[nH]2)sc2c1CS(=O)(=O)CC2`, 230 to 232 °C; to `COCC1CN(c2ccc3c(c2)CCC(CCC(F)(F)F)O3)C(=O)O1` (configuration not stated), 110 to 111 °C.
The molecule `Cc1oc(-c2ccccc2)nc1COc1ccc(Sc2nc(CC(=O)O)cs2)cc1` had a melting point of 180 to 181 °C.
Turning to `N#CC1C(=O)NC(=O)C(C#N)C12CCCCC2` (configuration not stated), the melting point was in the range of 202 to 210 °C.
To `CSc1cnc(NC(=O)C(Cc2ccc(F)cc2)c2ccc(S(C)(=O)=O)cc2)cn1` (configuration not stated) belongs 188 °C.
The molecule `O=C1c2ccccc2C(=O)N1Cc1cnc2n1-c1ccc(Cl)cc1C(c1ccccc1Cl)=NC2` yielded a melting point of 218 to 220 °C.
To `Clc1ccc(C(c2ccc(Cl)cc2)n2ncnn2)cc1` belongs 91 to 92 °C; to `COc1ccc(-c2cc3c4n(ccc-3n2)CC(C)=N4)cc1`, 168 °C; to `O=C(CCc1ccc(OCCS(=O)(=O)CCOC(c2ccc(Cl)cc2)c2ccc(Cl)cc2)cc1)C(F)(F)F`, 98 to 100 °C.
Take `CCOC(CNC(=S)Nc1ccccn1)OCC`: the melting point was in the range of 132 to 133 °C.
`COC(=O)C1(N)CCN(c2ncc3ncnc(Nc4ccc(F)c(Cl)c4)c3n2)CC1` had a melting point of 182 to 184 °C.
To `O=c1oc(-c2ccc3c(c2)OCCO3)cc(O)c1SCc1ccccc1` belongs 192 to 193 °C.
To `Cc1c(N2CCN(Cc3ccccc3)C(C)(C)C2)c(F)cc2c(=O)c(C(=O)O)cn(C3CC3)c12` belongs 170 to 171 °C; to `Nc1nc2c(s1)CCCc1ccc(F)cc1-2`, 270 °C; to `CC(=O)OC1CC(=O)N([Si](C)(C)C)C1` (configuration not stated), 148 to 150 °C.
To `Nc1cc(C(=O)O)cc(OCc2ccccc2)c1Cc1ccccc1` belongs 208 to 210 °C; to `COc1cc2c(cc1OC)C(Oc1ccccc1)CN(CCCOc1ccccc1)CC2` (configuration not stated), 95 to 100 °C; to `CCC(CC)c1ccc(C(=O)OC)c2nc(Oc3c(C)cc(Cl)cc3Cl)n(C)c12`, 177 to 178 °C.
In turn, `O=S(=O)(NCc1ccnc2c(Cl)cccc12)c1ccc(-c2ccc(C(F)(F)F)cc2C(F)(F)F)cc1` showed a melting point of 184 to 185 °C.
As for `O=C1CNN=C(c2ccccn2)N1`, the figure is 138 to 139 °C.
For `CCCCc1ncc(CSC(CC(=O)O)C(=O)O)n1Cc1ccc(C(=O)O)cc1` (configuration not stated), the melting point was 140 °C.
`CC(=O)Nc1cc2c(c3c1OC(C)(C)C3)C(c1ccccc1)=NC(C)(C)C2` registered a melting point of 175 to 180 °C.
The molecule `O=[N+]([O-])c1ccc(-n2ccnc2SCc2ccccc2N2CCOCC2)nc1` displayed a melting point of 199 to 202 °C.
To `O=C(O)C(Cc1ccc(C(F)(F)F)cc1Br)C(=O)O` belongs 80 to 82 °C; to `Cc1cc(C)c(C(=O)P(=O)(CC(C)C)C(=O)c2c(C)cc(C)cc2C)c(C)c1`, 85 to 86 °C.
As for `Nc1nc2ccccc2c2c1ncn2CCOCCCc1ccccc1C(=O)O`, the figure is 186 to 188 °C.
As for `C(#Cc1ccc(-c2nc3ccccc3s2)cc1)c1ccccc1`, the figure is 172 to 173 °C.
`COC(=O)c1ccc(OCCCCCOc2ccc(C(=O)OC)cc2)cc1` came in with a melting point of 93 to 95 °C.
To `CNC(=O)c1cc2ccccc2c(-c2ccc(I)cc2)n1` belongs 163 to 164 °C; to `CCN1CC(=O)N(CC)c2cc(Nc3ncc(Cl)c(Nc4ccccc4S(=O)(=O)N(C)C)n3)c(OC)cc2C1`, 195 to 197 °C; to `Fc1ccc(Cn2c(NC3CCN(CCc4cccs4)CC3)nc3ccccc32)cc1`, 152 °C.
`CC(CSC(=O)c1ccccc1)C(=O)N(CC(=O)O)C1CCC(c2ccccc2)CC1` (configuration not stated): the melting point was in the range of 180 to 181 °C.
Take `O=c1ccn2nc(-c3ccncc3)c(-c3ccc(F)cc3)c2[nH]1`: the melting point is 298 to 299 °C.
As for `CC(=O)c1ccc(Cl)nc1`, the figure is 101 to 102 °C.
To `O=C1NC(=S)SC1=Cc1ccc2c(c1)OCO2` belongs 194 to 195 °C.
As for `COc1ccc(SCCSc2ccc(OC)cc2)cc1`, the melting point is 108 to 110 °C.
As for `Clc1ccc2c(c1)oc1cc(OCCn3ccnc3)ccc12`, the figure is 150 to 151 °C; as for `CCCCCCCN(CC)CCC(O)c1ccc(NS(C)(=O)=O)cc1` (configuration not stated), 74 to 75 °C.
As for `Oc1ncnc2c1cnn2C1OC(COCc2ccccc2)C(OCc2ccccc2)C1OCc1ccccc1` (configuration not stated), the figure is 204 °C; as for `Cn1c(Cn2ccnc2)nc2ccccc21`, 151 to 152 °C; as for `O=C1C(=O)c2ccccc2C2=C1SCC1(CCN(C(=O)c3nc4ccccc4[nH]3)CC1)O2`, 266 to 268 °C.
`COC(=O)Cc1ccc(OCc2nc(-c3ccccc3)oc2C)cc1` returned a melting point of 74 to 75 °C.
`COC1CSC2=C(SC1)C(OC(=O)N1CCN(C)CC1)N(c1ccc3ccc(Cl)cc3n1)C2=O` (configuration not stated) registered a melting point of 228 °C.
`COc1cc2nc(N3CCN(c4ccnc(Cl)n4)CC3)nc(N)c2cc1OC` yielded a melting point of 266 °C.
To `COc1cccc(-c2nc(Cl)nc(Cl)n2)c1` belongs 114 °C; to `FC(F)(F)c1c[nH]c(-c2ccc(-c3nc(C(F)(F)F)c[nH]3)cc2)n1`, 325 °C; to `O=c1ccc(-c2c(-c3ccccc3)nn3ccccc23)nn1Cc1nccs1`, 130 to 132 °C.
